According to patent US11578084B2, “Condensed ring compounds having dopamine D3 receptor antagonistic effect” (Shionogi & Co., Ltd., priority 2018, dated 2023):
pKi: −log10 of the molar value.

Assays:
[1] = biological target: human recombinant dopamine D3 receptor (Homo sapiens (Human), UniProt P35462); assay: Test of binding inhibition for dopamine D3 receptor ([3H]-Methylspiperone SPA); settings: Jump-In HEK cell membranes, 2 nM [3H]-Methylspiperone, 120 min at 25° C.; read-out: hD3_Ki
Outline: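 SPA radioligand binding on Jump-In HEK membranes expressing human D3 receptor (4 µg/well) with 2 nM [3H]-methylspiperone (final), incubated 120 min at 25 °C. Non-specific binding defined with 10 µM butaclamol. Percent inhibition computed against total and non-specific binding; Ki from dose-response curves.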

[2] = biological target: human recombinant dopamine D2 receptor (Homo sapiens (Human), UniProt P14416); assay: Test of binding inhibition for dopamine D2 receptor ([3H]-Methylspiperone SPA); settings: Jump-In HEK cell membranes, 1.2 nM [3H]-Methylspiperone, 120 min at 25° C.; read-out: hD2_Ki
Outline: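 Incubation was 120 min at 25° C. with human recombinant D2 membranes from Jump-In HEK cells (2 μg/well), WGA SPA beads (0.2 mg/well) and [3H]-Methylspiperone as radioligand.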

hERG channel (IKr) = hERG channel (IKr) (Homo sapiens (Human), UniProt Q12809); assay: hERG test (whole cell patch clamp, IKr); type: cell-based; settings: human, CHO cells expressing hERG channel, pH 7.4, 3 μM, tail peak current
Text: Test Example 10: hERG Test
For the purpose of assessing risk of an electrocardiogram QT interval prolongation of the compound of the present invention, effects of the compound of the present invention on delayed rectifier K+ current (IKr), which plays an important role in the ventricular repolarization process, was studied using CHO cells expressing human ether-a-go-go related gene (hERG) channel.
After a cell was retained at a membrane potential of −80 mV by whole cell patch clamp method using an automated patch clamp system (QPatch; Sophion Bioscience A/S) and gave a leak potential of −50 mV, IKr induced by depolarization pulse stimulation at +20 mV for 2 seconds and, further, repolarization pulse stimulation at −50 mV for 2 seconds, was recorded. After the generated current was stabilized, extracellular solution (NaCl: 145 mmol/L, KCl: 4 mmol/L, CaCl2): 2 mmol/L, MgCl2: 1 mmol/L, glucose: 10 mmol/L, HEPES (4-(2-hydroxyethyl)-1-piperazineethanesulfonic acid): 10 mmol/L, pH=7.4), in which the compound of the present invention had been dissolved at an objective concentration in the extracellular solution, was applied to the cell at room temperature for 7 minutes or more. From the recording IKr, an absolute value of the tail peak current was measured based on the current value at the resting membrane potential using analysis software (QPatch Assay software; Sophion Bioscience A/S). Further, the % inhibition of tail peak current for the compound of the present invention relative to the tail peak current after application of the solution (0.1% dimethyl sulfoxide solution) was calculated to assess influence of the compound of the present invention on IKr.

human recombinant dopamine D2 receptor, sequence (P14416 whole entry): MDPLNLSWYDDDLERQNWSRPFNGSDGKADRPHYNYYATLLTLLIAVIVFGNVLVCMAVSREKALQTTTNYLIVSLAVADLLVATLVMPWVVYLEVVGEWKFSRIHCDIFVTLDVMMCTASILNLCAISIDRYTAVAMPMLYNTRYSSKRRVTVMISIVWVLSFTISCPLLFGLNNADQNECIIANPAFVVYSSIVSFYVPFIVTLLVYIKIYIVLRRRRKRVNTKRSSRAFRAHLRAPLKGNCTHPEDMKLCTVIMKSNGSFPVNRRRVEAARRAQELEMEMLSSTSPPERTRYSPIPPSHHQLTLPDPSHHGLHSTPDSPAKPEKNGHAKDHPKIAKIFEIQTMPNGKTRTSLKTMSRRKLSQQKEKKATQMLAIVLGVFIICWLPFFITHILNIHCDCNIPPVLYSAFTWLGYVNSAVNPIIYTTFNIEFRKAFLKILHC
hERG channel (IKr), sequence (Q12809 whole entry): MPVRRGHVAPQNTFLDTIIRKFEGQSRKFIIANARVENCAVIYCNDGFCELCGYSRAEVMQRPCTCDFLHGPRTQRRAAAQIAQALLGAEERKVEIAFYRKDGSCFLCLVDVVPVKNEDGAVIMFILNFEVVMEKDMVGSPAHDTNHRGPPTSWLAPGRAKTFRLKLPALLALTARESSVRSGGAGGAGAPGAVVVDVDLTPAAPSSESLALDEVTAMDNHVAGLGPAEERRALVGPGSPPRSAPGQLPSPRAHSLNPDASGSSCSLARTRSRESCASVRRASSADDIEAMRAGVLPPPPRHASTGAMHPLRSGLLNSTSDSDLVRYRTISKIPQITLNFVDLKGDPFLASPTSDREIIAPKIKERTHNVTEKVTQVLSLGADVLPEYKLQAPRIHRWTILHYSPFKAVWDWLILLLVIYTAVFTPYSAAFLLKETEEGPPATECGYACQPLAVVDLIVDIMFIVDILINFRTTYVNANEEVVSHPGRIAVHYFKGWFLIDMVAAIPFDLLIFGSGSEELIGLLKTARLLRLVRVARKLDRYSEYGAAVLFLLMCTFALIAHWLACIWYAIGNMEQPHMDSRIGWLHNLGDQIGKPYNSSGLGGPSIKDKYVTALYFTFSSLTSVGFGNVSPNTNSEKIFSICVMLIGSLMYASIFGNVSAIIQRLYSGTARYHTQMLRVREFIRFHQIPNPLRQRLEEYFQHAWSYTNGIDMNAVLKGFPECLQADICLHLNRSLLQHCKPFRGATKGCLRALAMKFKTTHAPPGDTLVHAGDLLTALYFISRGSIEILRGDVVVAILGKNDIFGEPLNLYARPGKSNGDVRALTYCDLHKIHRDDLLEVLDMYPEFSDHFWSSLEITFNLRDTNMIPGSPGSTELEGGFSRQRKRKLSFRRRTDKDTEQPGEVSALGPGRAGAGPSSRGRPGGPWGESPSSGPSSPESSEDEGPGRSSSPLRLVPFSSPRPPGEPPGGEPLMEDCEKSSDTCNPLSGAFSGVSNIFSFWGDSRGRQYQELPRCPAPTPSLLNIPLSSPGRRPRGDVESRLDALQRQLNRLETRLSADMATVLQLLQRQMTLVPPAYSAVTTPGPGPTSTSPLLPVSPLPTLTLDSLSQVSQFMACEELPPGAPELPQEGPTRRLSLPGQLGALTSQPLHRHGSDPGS
human recombinant dopamine D3 receptor, sequence (P35462 whole entry): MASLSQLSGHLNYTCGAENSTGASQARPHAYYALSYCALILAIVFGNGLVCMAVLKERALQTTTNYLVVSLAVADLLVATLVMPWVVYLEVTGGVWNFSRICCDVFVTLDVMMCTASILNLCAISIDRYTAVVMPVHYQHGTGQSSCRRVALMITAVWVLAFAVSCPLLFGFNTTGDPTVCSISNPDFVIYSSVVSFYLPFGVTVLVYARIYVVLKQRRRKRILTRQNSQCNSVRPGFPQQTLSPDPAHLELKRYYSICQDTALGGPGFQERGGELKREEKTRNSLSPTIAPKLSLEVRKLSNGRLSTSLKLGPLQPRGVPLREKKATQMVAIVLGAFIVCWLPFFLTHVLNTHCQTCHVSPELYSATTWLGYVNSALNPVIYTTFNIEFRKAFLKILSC

| Compound | pKi [1] | pKi [2] | inhibition at 3 µM (hERG channel (IKr)) [%] |
| --- | --- | --- | --- |
| CN1Cc2c(C(=O)N[C@H]3CC[C@H](CCN4CCc5sc(OC6CC(F)(F)C6)nc5C4)CC3)cccc2C1=O [Example I-001] | 9.70 | 6.54 | 21.3 |
| Cn1cc2c(C(=O)N[C@H]3CC[C@H](CCN4CCc5ccc(OCC(C)(C)F)nc5CC4)CC3)cccc2n1 [Example I-003] | 9.82 | 6.11 | 31 |
| Cn1cc(CC(=O)N[C@H]2CC[C@H](CCN3CCc4nc(OCC(C)(F)F)sc4CC3)CC2)cn1 [Example I-004] | 9.82 | 6.15 | 21.6 |
| Cc1ncc(CC(=O)N[C@H]2CC[C@H](CCN3CCc4ccc(OC(C)C)nc4CC3)CC2)o1 [Example I-006] | 9.23 | < 5.72 | 23 |
| Cc1nnc(CC(=O)N[C@H]2CC[C@H](CCN3CCc4ccc(OC(C)C)nc4CC3)CC2)s1 [Example I-007] | 9.17 | 5.82 | 33.7 |
| Cc1nc(CC(=O)N[C@H]2CC[C@H](CCN3CCc4nc(OCC(C)(F)F)sc4CC3)OC2)no1 [Example I-008] | 9.02 | < 5.72 | 20.8 |
| Cn1cc2c(C(=O)N[C@H]3CC[C@H](CCN4CCc5nc(OCC(C)(F)F)sc5CC4)OC3)cccc2n1 [Example I-009] | 9.92 | 6.16 | 33.8 |
| COc1cc(CC(=O)N[C@H]2CC[C@H](CCN3CCc4nc(OCC(C)(F)F)sc4CC3)OC2)on1 [Example I-010] | 9.89 | 6.03 | 32 |
| Cc1nnc(CC(=O)N[C@H]2CC[C@H](CCN3CCc4sc(C5CC(F)(F)C5)nc4C3)OC2)o1 [Example I-011] | 9.49 | 6.02 | 10.6 |
| CN1Cc2c(C(=O)N[C@H]3CC[C@H](CCN4CCc5sc(C6CC(F)(F)C6)nc5C4)CC3)cccc2C1=O [Example I-012] | 9.82 | 6.59 | 19 |
| Cc1nc(CC(=O)N[C@H]2CC[C@](F)(CCN3CCc4nc(OCC(C)(F)F)sc4CC3)CC2)no1 [Example I-013] | 9.28 | 6.04 | 21.4 |
| Cc1nnc(CC(=O)N[C@H]2CC[C@](F)(CCN3CCc4nc(OCC(C)(F)F)sc4CC3)CC2)o1 [Example I-014] | 9.32 | 6.01 | 3.83 |
| Cc1cnc(CC(=O)N[C@H]2CC[C@](F)(CCN3CCc4nc(OCC(C)(F)F)sc4CC3)CC2)o1 [Example I-015] | 9.59 | 6.00 | 24.3 |
| Cn1cc2c(C(=O)NN3CCC(CCN4CCc5ccc(OCC(F)(F)F)nc5CC4)CC3)cccc2n1 [Example I-016] | 10.41 | 6.07 | 19.1 |
| Cn1cc(CC(=O)N[C@H]2CC[C@](F)(CCN3CCc4ccc(OCC(C)(F)F)nc4CC3)CC2)cn1 [Example I-017] | 10.20 | 6.62 | 21.6 |
| Cc1nnc(CC(=O)N[C@H]2CC[C@](F)(CCN3CCc4ccc(OCC(C)(F)F)nc4CC3)CC2)s1 [Example I-018] | 10.46 | 6.72 | 33.8 |
| Cc1ncccc1C(=O)N[C@H]1CC[C@H](CCN2CCc3nc(OC4CC(F)(F)C4)sc3CC2)CC1 [Example I-019] | 9.43 | < 5.74 | 8.86 |
| Cc1nnc(CC(=O)N[C@H]2CC[C@H](CCN3CCc4nc(OC5CC(F)(F)C5)sc4CC3)CC2)o1 [Example I-020] | 9.57 | < 5.74 | 23.1 |
| Cn1cc(CC(=O)N[C@H]2CC[C@H](CCN3CCc4nc(OC5CC(F)(F)C5)sc4CC3)CC2)cn1 [Example I-021] | 9.82 | 5.72 | 24.3 |
| Cc1cc(OCC(=O)N[C@H]2CC[C@H](CCN3CCc4nc(OC5CC(F)(F)C5)sc4CC3)CC2)no1 [Example I-022] | 10.00 | < 5.64 | 32.6 |
| Cn1ncc(CC(=O)N[C@H]2CC[C@H](CCN3CCc4nc(OC5CC(F)(F)C5)sc4CC3)CC2)n1 [Example I-023] | 9.96 | < 5.66 | 16.5 |

| Compound | pKi [1] | pKi [2] | inhibition at 3 µM (hERG channel (IKr)) [%] |
| --- | --- | --- | --- |
| Cc1nc(CC(=O)N[C@H]2CC[C@](F)(CCN3CCc4ccc(OCC(F)F)nc4CC3)CC2)no1 [Example I-024] | 9.70 | < 5.66 | 18.7 |
| Cc1nnc(CC(=O)N[C@H]2CC[C@](F)(CCN3CCc4ccc(OCC(F)F)nc4CC3)CC2)o1 [Example I-025] | 9.34 | 6.09 | 14.9 |
| Cc1ncc(CC(=O)N[C@H]2CC[C@](F)(CCN3CCc4ccc(OCC(F)F)nc4CC3)CC2)o1 [Example I-026] | 10.02 | 5.96 | 20.1 |
| Cn1cc(CC(=O)N[C@H]2CC[C@](F)(CCN3CCc4ccc(OCC(F)F)nc4CC3)CC2)cn1 [Example I-027] | 9.64 | 6.00 | 14.3 |
| Cn1cc2c(C(=O)NN3CCC(F)(CCN4CCc5sc(OCC(F)(F)F)nc5C4)CC3)cccc2n1 [Example I-028] | 9.39 | 6.19 | 9.09 |
| Cn1c(C(=O)N[C@H]2CC[C@](F)(CCN3CCc4ccc(OCC(F)F)nc4CC3)CC2)cccc1=O [Example I-029] | 9.44 | 6.21 | 8.37 |
| Cc1ncc(OCC(=O)N[C@H]2CC[C@](F)(CCN3CCc4ccc(OCC(F)F)nc4CC3)CC2)cn1 [Example I-030] | 9.52 | 6.21 | 26.1 |
| Cn1cc(CC(=O)N[C@H]2CC[C@H](CCN3CCc4ccc(OC5CCC5)nc4CC3)CC2)cn1 [Example I-032] | 9.32 | < 5.66 | 31.9 |
| Cc1ncc(CC(=O)N[C@H]2CC[C@H](CCN3CCc4ccc(OC5CCC5)nc4CC3)CC2)o1 [Example I-033] | 9.11 | < 5.66 | 12.2 |
| Cc1ncccc1C(=O)N[C@H]1CC[C@H](CCN2CCc3nc(OCC(C)(F)F)sc3CC2)CC1 [Example I-034] | 9.44 | 6.25 | 34.3 |
| Cn1cc2c(C(=O)N[C@H]3CC[C@H](CCN4CCc5sc([C@H]6C[C@@H](F)C6)nc5C4)CC3)cccc2n1 [Example I-035] | 9.74 | 6.68 | 16 |
| Cc1cnc(CC(=O)N[C@H]2CC[C@H](CCN3CCc4nc(OCC(C)(F)F)sc4CC3)CC2)o1 [Example I-036] | 9.27 | 6.04 | 29.8 |
| Cc1ncc(/C=C/C(=O)N[C@H]2CC[C@H](CCN3CCc4nc(OCC(C)(F)F)sc4CC3)CC2)cn1 [Example I-037] | 10.01 | 6.62 | 28 |
| Cc1cnc(CC(=O)N[C@H]2CC[C@](F)(CCN3CCc4nc(OCC(F)F)sc4CC3)CC2)o1 [Example I-038] | 9.09 | < 5.77 | 21.4 |
| Cc1nc(CC(=O)N[C@H]2CC[C@](F)(CCN3CCc4nc(OCC(F)F)sc4CC3)CC2)no1 [Example I-039] | 9.00 | 5.92 | 22.3 |
| Cc1nnc(CC(=O)N[C@H]2CC[C@](F)(CCN3CCc4nc(OCC(F)F)sc4CC3)CC2)s1 [Example I-040] | 9.34 | 6.05 | 23.2 |
| Cc1cnc(CC(=O)N[C@H]2CC[C@H](CCN3CCc4sc(C5CC(F)(F)C5)nc4C3)CC2)o1 [Example I-041] | 9.77 | 6.21 | 18.1 |
| Cc1ncccc1C(=O)N[C@H]1CC[C@](F)(CCN2CCc3nc(OCC(C)(F)F)sc3CC2)CC1 [Example I-042] | 9.24 | 6.00 | 10.8 |
| Cc1ncc(CC(=O)N[C@H]2CC[C@](F)(CCN3CCc4nc(OCC(C)(F)F)sc4CC3)CC2)o1 [Example I-043] | 9.92 | 6.01 | 20.7 |
| Cc1ncc(OCC(=O)N[C@H]2CC[C@](F)(CCN3CCc4nc(OCC(C)(F)F)sc4CC3)CC2)cn1 [Example I-044] | 9.85 | 6.21 | 23.7 |
| Cc1cnc(OCC(=O)N[C@H]2CC[C@H](CCN3CCc4sc(OCC(C)(F)F)nc4C3)CC2)cn1 [Example I-046] | 9.47 | 6.30 | 14.3 |
